Measured values from patent EP4653435A1, “PRMT5-MTA INHIBITOR” (Suzhou Puhe Biopharma Co., Ltd., priority 2023, dated 2024).
Read-outs that look alike come from different tables or passages of the source.

Tests used:
[1] = Liver microsomal stability assay, human
Experimental: The compounds to be tested were co-incubated with liver microsomes of different species with or without the addition of NADPH. The final concentration of the test compounds in the test system was 1 µM, the final concentration of NADPH was 1 mM, and the final concentration of liver microsomes was 0.5 mg/mL.

HCT116-MTAPdel = assay: 2D antiproliferative assay (CTG cell viability), MTAP-deficient cells; type: cell-based; details: for IC50: Homo sapiens; for HCT116WT IMTAPdel selectivity: ratio IC50 wild type / MTAPdel, antiproliferation
Experimental: (§1) HCT116 wild-type and MTAP-deficient cells were cultured in McCoy's 5A medium containing 10% FBS and 1% penicillin-streptomycin, and cultured in a 37°C, 5% CO2 constant temperature incubator. 40 µL of cell suspension was introduced into each well of a 384-well microplate. 40 nL of different concentrations of test compounds were added to each well using an Echo, before culturing in a 37°C, 5% CO2 constant temperature incubator for 7-10 days. 40 µL of CTG solution (Promega, Cat No. G7573) was added to each well and incubated in a 37°C, 5% CO2 constant temperature incubator for 30 minutes in the dark.

HCT116-MTAPwt = assay: 2D antiproliferative assay (CTG cell viability), wild-type cells; type: cell-based; details: Homo sapiens, HCT-116, 7-10 days
Experimental: as §1

[2] = HCT-116, HCT116 MTAP-deficient cells, 7-10 days, CTG, read-out: HCT116-MTAPdel/IC50/nM

SMILES	CLint scaled at 1 µM ([1]; liver microsomes)	IC50 (HCT116-MTAPdel; [2])	IC50 (HCT116-MTAPwt)	CLint scaled at 1 h, 1 µM ([1]; microsomes)	HCT116WT IMTAPdel selectivity (HCT116-MTAPdel)	IC50 (HCT116-MTAPdel; HCT-116, read-out: HCT116-MTAPdel/IC50/nM)	CLint scaled at 1 h, 1 µM ([1]; liver microsomes)
CN(C(=O)C(=O)Nc1cnc(N)c2c1cnn2C)C1COCc2nc(C(F)(F)F)ccc21 (stereo not shown) [Compound P9]	5 mL/min/kg	24 nM	1420 nM		59		
C[C@@H]1COC[C@H](c2ccc(-c3cncc(Cl)c3)cn2)N1C(=O)C(=O)Nc1cnc(N)c2c1cnn2C [Compound P13b]		2 nM	506 nM		253		
C[C@@H]1CC[C@@H](c2ccc3scnc3c2)N(C(=O)C(=O)Nc2cnc(N)c3c2cnn3C)C1 [Compound P3a]			> 10000 nM			666 nM	
CN(C(=O)C(=O)Nc1cnc(N)c2c1cnn2C)[C@@H]1COc2cc(-c3cncc(Cl)c3)ccc21 [Compound H1a]		9 nM	2320 nM		258		
Cc1nc2cc(C3CCC(C)CN3C(=O)C(=O)Nc3cnc(N)c4c3cnn4C)ccc2s1 (racemic) [Compound P10]		10 nM	800 nM		80		
C[C@H]1COC[C@@H](c2ccc(C(F)(F)F)cn2)N1C(=O)C(=O)Nc1cnc(N)c2c1cnn2C (racemic) [Compound P11]		15 nM	855 nM	16.5 mL/min/kg	57		
CCn1ncc2c(NC(=O)C(=O)N(Cc3ccc(C(F)(F)F)cn3)[C@H](C)c3ncccn3)cnc(N)c21 [Compound P6]		18 nM	1300 nM		72		
C[C@H](c1ncccn1)N(Cc1ccc(C(F)(F)F)cn1)C(=O)C(=O)Nc1cnc(N)c2c1cnn2C1CC1 [Compound P7]		56 nM	2520 nM		45		
C[C@H]1CC[C@H](c2ccc3sc(CCN(C)C)nc3c2)N(C(=O)C(=O)Nc2cnc(N)c3c2cnn3C)C1 (racemic) [Compound P15]		6 nM	203 nM	9.7 mL/min/kg	34		
C[C@H]1CC[C@H](c2ccc3sc(C4CCOCC4)nc3c2)N(C(=O)C(=O)Nc2cnc(N)c3c2cnn3C)C1 (racemic) [Compound P18]		14 nM	900 nM		64		
C[C@H]1COC[C@@H](c2ccc(-c3cncc(Cl)c3)cn2)N1C(=O)C(=O)Nc1cnc(N)c2c1cnn2C [Compound P13a]		616 nM	> 10000 nM		>16		
Cn1ncc2c(NC(=O)C(=O)NC3COc4cc(C(F)(F)F)ccc43)cnc(N)c21 (stereo not shown) [Compound A1, reference compound]		> 10000 nM	> 10000 nM				
CN(C(=O)C(=O)Nc1cnc(N)c2c1cnn2C)[C@H]1COc2cc(C(F)(F)F)ccc21 [Compound P2b]		118 nM	> 10000 nM		85		
CC1CCC(c2ccc3sc(C4CCN(C)CC4)nc3c2)N(C(=O)C(=O)Nc2cnc(N)c3c2cnn3C)C1 (racemic) [Compound P5]		4 nM	36 nM		9		10.7 mL/min/kg
C[C@H]1CC[C@H](c2ccc3sc(C(F)(F)F)nc3c2)N(C(=O)C(=O)Nc2cnc(N)c3c2cnn3C)C1 (racemic) [Compound P16]		11 nM	891 nM		81		
C[C@H]1CC[C@H](c2ccc3sc(-c4cccnc4)nc3c2)N(C(=O)C(=O)Nc2cnc(N)c3c2cnn3C)C1 (racemic) [Compound P17]		8 nM	606 nM		76		
C[C@H](c1ncccn1)N(Cc1ccc(-c2cncc(Cl)c2)cn1)C(=O)C(=O)Nc1cnc(N)c2c1cnn2C [Compound P8]		4 nM	161 nM		40		
C[C@H](c1ncccn1)N(Cc1ccc(C(F)(F)F)cn1)C(=O)C(=O)Nc1cnc(N)c2cnn(C)c12 [Compound P4]		813 nM	> 10000 nM		>12		
C[C@@H]1COC[C@H](c2ccc(C(F)(F)F)cn2)N1C(=O)C(=O)Nc1cnc(N)c2c1cnn2C [Compound P11b]		8 nM	427 nM		53		
CN(C(=O)C(=O)Nc1cnc(N)c2c1cnn2C)[C@@H]1COCc2nc(-c3cncc(Cl)c3)ccc21 [Compound H2b]	21.3 mL/min/kg	4 nM	1230 nM		308		
CN(C(=O)C(=O)Nc1cnc(N)c2c1cnn2C)[C@H]1COc2cc(-c3cncc(Cl)c3)ccc21 [Compound H1b]		300 nM	> 10000 nM		>33		
C[C@H]1CC[C@H](c2ccc3sc(CN(C)C)nc3c2)N(C(=O)C(=O)Nc2cnc(N)c3c2cnn3C)C1 (racemic) [Compound P14]		11 nM	295 nM		27		
CN(C(=O)C(=O)Nc1cnc(N)c2c1cnn2C)[C@H]1COCc2nc(-c3cncc(Cl)c3)ccc21 [Compound H2a]		224 nM	> 10000 nM		>45		
C[C@H]1COC[C@@H](c2ccc(OC(F)(F)F)cc2)N1C(=O)C(=O)Nc1cnc(N)c2c1cnn2C (racemic) [Compound P12]		5 nM	607 nM		121		
CN(C(=O)C(=O)Nc1cnc(N)c2c1cnn2C)[C@H]1COCc2nc(C(F)(F)F)ccc21 [Compound P9b]		883 nM	> 10000 nM		>11		
C[C@H]1COC[C@@H](c2ccc(C(F)(F)F)cn2)N1C(=O)C(=O)Nc1cnc(N)c2c1cnn2C [Compound P11a]		1910 nM	> 10000 nM		>5		

Now from value to molecule, other results behind:

CLint scaled at 1 µM ([1]; liver microsomes)	IC50 (HCT116-MTAPdel; [2])	IC50 (HCT116-MTAPwt)	CLint scaled at 1 h, 1 µM ([1]; microsomes)	SMILES	HCT116WT IMTAPdel selectivity (HCT116-MTAPdel)	IC50 (HCT116-MTAPdel; HCT-116, read-out: HCT116-MTAPdel/IC50/nM)	CLint scaled at 1 h, 1 µM ([1]; liver microsomes)
	2410 nM	> 10000 nM		CCn1ncc2c(NC(=O)C(=O)N(C)[C@@H]3COc4cc(C(F)(F)F)ccc43)cnc(N)c21 [Compound P24]	>4		
	883 nM	> 10000 nM		Cn1ncc2c(NC(=O)C(=O)N(CC(F)(F)F)[C@H]3COc4cc(C(F)(F)F)ccc43)cnc(N)c21 [Compound P20b]	11		
	978 nM	> 10000 nM		Cn1ncc2c(NC(=O)C(=O)N(C3CC3)[C@H]3COc4cc(C(F)(F)F)ccc43)cnc(N)c21 [Compound P21a]	10		
	6 nM	847 nM		Cn1ncc2c(NC(=O)C(=O)N(C3CC3)[C@@H]3COc4cc(C(F)(F)F)ccc43)cnc(N)c21 [Compound P21b]	141		
	21 nM	3580 nM		CSc1ccc2c(c1)OCC2N(C)C(=O)C(=O)Nc1cnc(N)c2c1cnn2C (stereo not shown) [Compound P31]	171		
	12 nM	4550 nM		[2H]C([2H])([2H])n1ncc2c(NC(=O)C(=O)N(C)[C@@H]3COCc4nc(C(F)(F)F)ccc43)cnc(N)c21 [Compound P26]	380		
	1260 nM	> 10000 nM		CCn1ncc2c(NC(=O)C(=O)N(C)[C@@H]3COCc4nc(C(F)(F)F)ccc43)cnc(N)c21 [Compound P25]	>8		
19.2 mL/min/kg	28 nM	6020 nM		Cn1ncc2c(NC(=O)C(=O)N(CC(F)(F)F)[C@@H]3COc4cc(C(F)(F)F)ccc43)cnc(N)c21 [Compound P20a]	215		
	986 nM	2340 nM		CCN(C(=O)C(=O)Nc1cnc(N)c2c1cnn2C)[C@H]1COCc2nc(C(F)(F)F)ccc21 [Compound P28a]	2		
	15 nM	2110 nM		[2H]C([2H])([2H])N(C(=O)C(=O)Nc1cnc(N)c2c1cnn2C)[C@@H]1COCc2nc(C(F)(F)F)ccc21 [Compound P27]	141		
	191 nM	> 10000 nM		CN(C(=O)C(=O)Nc1cnc(N)c2c1cnn2C)[C@H]1COc2cc(OC(F)(F)F)ccc21 [Compound P30b]	>52		
	7 nM	1550 nM		CN(C(=O)C(=O)Nc1cnc(N)c2c1cnn2C)[C@@H]1COc2cc(OC(F)(F)F)ccc21 [Compound P30a]	221		
	17 nM	72 nM		CC(=O)N1CCC(Nc2cc(C(=O)NC[C@H](O)CN3CCc4ccccc4C3)ncn2)CC1 [GSK3326595, reference compound]	4		
	261 nM	3860 nM		CCN(C(=O)C(=O)Nc1cnc(N)c2c1cnn2C)[C@H]1COc2cc(C(F)(F)F)ccc21 [Compound P19b]	15		
	17 nM	1710 nM		[2H]C([2H])([2H])n1ncc2c(NC(=O)C(=O)N(C)[C@@H]3COc4cc(C(F)(F)F)ccc43)cnc(N)c21 [Compound P23]	101		
